Read-outs that look alike come from different tables or passages of the source.
How the values were obtained:
RPMI-8226 [1] = test system: RPMI-8226
HCT-116 [2] = test system: HCT-116
A498 [3] = test system: A498
ACHN [4] = test system: ACHN
MDA-MB-435 [5] = conditions: MDA-MB-435 (Melanoma panel)
RPMI-8226 [6] = experiment: cells; conditions: Homo sapiens, RPMI-8226
A549/ATCC = experiment: cells; conditions: Homo sapiens, A549
NCI-H226 = experiment: cells; conditions: Homo sapiens, NCI-H226
NCI-H522 = experiment: cells; conditions: Homo sapiens, NCI-H522
HCT-116 [7] = experiment: cells; conditions: Homo sapiens, HCT-116
HT29 = experiment: cells; conditions: Homo sapiens, HT-29
KM12 = experiment: cells; conditions: Homo sapiens, KM12
M14 = experiment: cells; conditions: Homo sapiens, M14
UACC-257 = experiment: cells; conditions: Homo sapiens, UACC-257
A498 [8] = experiment: cells; conditions: Homo sapiens, A498
ACHN [9] = experiment: cells; conditions: Homo sapiens
MDA-MB-435 [10] = experiment: cells; conditions: Homo sapiens, MDA-MB-435
[11] = Log10 Concentration −4.0, Molar
[12] = Log10 Concentration −5.0, Molar
[13] = Log10 Concentration −6.0, Molar
[14] = Log10 Concentration −7.0, Molar
[15] = Log10 Concentration −8.0, Molar

SMILES: CNC(=O)NC[C@H]1O[C@@H](n2cnc3c(NC(=O)Nc4ccccc4)ncnc32)C(O[Si](C)(C)C(C)(C)C)[C@H]1O[Si](C)(C)C(C)(C)C (some centres unmarked) [Compound 25, 2′,3′-Bis-O-(tert-butyldimethylsilyl)-5-deoxy-5′-[(N-methylcarbamoyl)amino]-N^6-(N-phenylcarbamoyl)adenosine]
- TGI (RPMI-8226 [1]): >1.00E−4 Molar
- Percent Growth (RPMI-8226 [1]; [11]): 4%
- Percent Growth (RPMI-8226 [1]; [12]): 5%
- Percent Growth (RPMI-8226 [1]; [13]): 98%
- Percent Growth (RPMI-8226 [1]; [14]): 98%
- Percent Growth (RPMI-8226 [1]; [15]): 102%
- TGI (COLO 205): 3.35E−6 Molar
- Percent Growth (COLO 205; [11]): −94%
- Percent Growth (COLO 205; [12]): −95%
- Percent Growth (COLO 205; [13]): 105%
- Percent Growth (COLO 205; [14]): 111%
- Percent Growth (COLO 205; [15]): 109%
- TGI (HCT-116 [2]): 4.31E−6 Molar
- Percent Growth (HCT-116 [2]; [11]): −100%
- Percent Growth (HCT-116 [2]; [12]): −59%
- Percent Growth (HCT-116 [2]; [13]): 102%
- Percent Growth (HCT-116 [2]; [14]): 105%
- Percent Growth (HCT-116 [2]; [15]): 107%
- TGI (SNB-19): >1.00E−4 Molar
- Percent Growth (SNB-19; [11]): 7%
- Percent Growth (SNB-19; [12]): 29%
- Percent Growth (SNB-19; [13]): 91%
- Percent Growth (SNB-19; [14]): 100%
- Percent Growth (SNB-19; [15]): 97%
- TGI (SK-MEL-5): 4.75E−6 Molar
- Percent Growth (SK-MEL-5; [11]): −99%
- Percent Growth (SK-MEL-5; [12]): −42%
- Percent Growth (SK-MEL-5; [13]): 82%
- Percent Growth (SK-MEL-5; [14]): 96%
- Percent Growth (SK-MEL-5; [15]): 102%
- TGI (OVCAR-5): 2.52E−5 Molar
- Percent Growth (OVCAR-5; [11]): −43%
- Percent Growth (OVCAR-5; [12]): 29%
- Percent Growth (OVCAR-5; [13]): 103%
- Percent Growth (OVCAR-5; [14]): 99%
- Percent Growth (OVCAR-5; [15]): 96%
- TGI (A498 [3]): 4.06E−6 Molar
- Percent Growth (A498 [3]; [11]): −75%
- Percent Growth (A498 [3]; [12]): −39%
- Percent Growth (A498 [3]; [13]): 90%
- Percent Growth (A498 [3]; [14]): 97%
- Percent Growth (A498 [3]; [15]): 92%
- TGI (ACHN [4]): >1.00E−4 Molar
- Percent Growth (ACHN [4]; [11]): 2%
- Percent Growth (ACHN [4]; [12]): 10%
- Percent Growth (ACHN [4]; [13]): 105%
- Percent Growth (ACHN [4]; [14]): 108%
- Percent Growth (ACHN [4]; [15]): 107%
- TGI (TK-10): 7.26E−5 Molar
- Percent Growth (TK-10; [11]): −2%
- Percent Growth (TK-10; [12]): 14%
- Percent Growth (TK-10; [13]): 112%
- Percent Growth (TK-10; [14]): 113%
- Percent Growth (TK-10; [15]): 110%
- TGI (UO-31): 9.56E−6 Molar
- Percent Growth (UO-31; [11]): −21%
- Percent Growth (UO-31; [12]): −2%
- Percent Growth (UO-31; [13]): 84%
- Percent Growth (UO-31; [14]): 97%
- Percent Growth (UO-31; [15]): 87%
- TGI (MCF7): 1.93E−5 Molar
- Percent Growth (MCF7; [11]): −15%
- Percent Growth (MCF7; [12]): 5%
- Percent Growth (MCF7; [13]): 83%
- Percent Growth (MCF7; [14]): 96%
- Percent Growth (MCF7; [15]): 99%
- TGI (MDA-MB-435 [5]): 2.91E−5 Molar
- Percent Growth (MDA-MB-435 [5]; Log10 Concentration −4.0 Molar): −10%
- Percent Growth (MDA-MB-435 [5]; Log10 Concentration −5.0 Molar): 9%
- Percent Growth (MDA-MB-435 [5]; Log10 Concentration −6.0 Molar): 97%
- Percent Growth (MDA-MB-435 [5]; Log10 Concentration −7.0 Molar): 102%
- Percent Growth (MDA-MB-435 [5]; Log10 Concentration −8.0 Molar): 102%
- TGI (BT-549): 9.18E−6 Molar
- Percent Growth (BT-549; [11]): −35%
- Percent Growth (BT-549; [12]): −10%
- Percent Growth (BT-549; [13]): 103%
- Percent Growth (BT-549; [14]): 112%
- Percent Growth (BT-549; [15]): 113%
- TGI (T-47D): 1.03E−5 Molar
- Percent Growth (T-47D; [11]): −32%
- Percent Growth (T-47D; [13]): 92%
- Percent Growth (T-47D; [14]): 105%
- Percent Growth (T-47D; [15]): 101%
- GI50 (RPMI-8226 [6]): 3.27 µM
- IC50 (RPMI-8226 [6]): > 100 µM
- GI50 (A549/ATCC): 2900 nM
- IC50 (A549/ATCC): > 100 µM
- GI50 (NCI-H226): 3.1 µM
- IC50 (NCI-H226): > 100 µM
- GI50 (NCI-H522): 2390 nM
- IC50 (NCI-H522): > 100 µM
- GI50 (HCT-116 [7]): 2110 nM
- IC50 (HCT-116 [7]): 8.8 µM
- GI50 (HT29): 2020 nM
- IC50 (HT29): 8.91 µM
- GI50 (KM12): 2130 nM
- IC50 (KM12): 8.05 µM
- GI50 (M14): 4.33 µM
- IC50 (M14): 93.8 µM
- GI50 (UACC-257): 3.78 µM
- IC50 (UACC-257): > 100 µM
- GI50 (A498 [8]): 2030 nM
- IC50 (A498 [8]): 1950 nM
- GI50 (ACHN [9]): 3.83 µM
- IC50 (ACHN [9]): > 100 µM
- GI50 (MDA-MB-435 [10]): 3.41 µM
- IC50 (MDA-MB-435 [10]): > 100 µM
